Test results: paper PMC4552634, “A New Set of Chemical Starting Points with Plasmodium falciparum Transmission-Blocking Potential for Antimalarial Drug Discovery” (PLoS ONE, 2015)
Where two headings read alike, the source gives them in different places.

Assays:
[1] = tested on: P. falciparum stage V gametocytes; test: Gametocytocidal ATP bioluminescence assay (single point 5 μM and 1 μM, dose-response); type: cell-based, Plasmodium falciparum; conditions: for Ratio IC50 HepG2/IC50 P. falciparum: IC50 HepG2 divided by IC50 P. falciparum gametocytes
Description: Purified stage IV-V gametocytes were obtained as previously described [10]. Single point ATP bioluminescence assay and dose–response of positive hits was determined in accordance with the previously published protocol [10].

[2] = tested on: luciferase reaction (BacTiter-Glo); test: Interference assay (inhibition of the BacTiter-Glo luciferase reaction); type: biochemical; design: concentration or dose not given beside the values; conditions: ATP interference assay
Description: To discard possible false-positive results, we performed an interference assay in parallel. […] […]. The ATP solution was made by dissolving ATP powder (ATP standard from the ATPlite 1 step assay kit, reference 6016731, Perkin Elmer) in culture medium. The positive control used was the Luciferase Inhibitor I Calbiochem (Merck, 119113) at 100 μM.

[3] = tested on: HepG2 cells; test: Cytotoxicity in HepG2 cells (intracellular ATP, ATPlite, 48 h); type: cell-based, human; conditions: HepG2 cells; IC50 per ratio column head; unit inferred
[4] = tested on: P. falciparum asexual stages; conditions: asexual stages; TCAMS data; read-out: IC50 asexual; cited from earlier work
[5] = P. falciparum gametocytes, average, read-out: IC50 Pf Gametocytes average, IC50 (µM) average
[6] = sexual stages (gametocytes), dose-response, read-out: IC50 sexual

Row | SMILES | Ratio IC50 HepG2/IC50 P. falciparum [1] | IC50 [1, 5] | IC50 [1, 6] | % Control luminiscence [2] | IC50 [3] | IC50 [4]
1 | O=C(Nc1cccc(-c2cccc(-c3ccc(F)cc3)n2)c1)c1ccc([N+](=O)[O-])o1 [TCMDC-124807] | 4.55 | 1.53 µM | 1.53 µM | 100% | 6.94 µM | 0.361 µM
2 | CCc1[nH]nc(C(=O)NC2CCN(CC3(c4ccc(OC)cc4)CCCCC3)CC2)c1C [TCMDC-124840] |  | > 10 µM |  | 100% | > 25 µM | 0.892 µM
3 | CS(=O)(=O)c1cccc2sc(N3CCN(C(=O)c4ccc([N+](=O)[O-])o4)CC3)nc12 [TCMDC-124930] | <1.9 | > 10 µM |  | 100% | 18.8 µM | 1.25 µM
4 | Cc1nn(CC(C)C)c2sc(C(=O)N3CCN(S(=O)(=O)c4ccc(C#N)cc4)CC3)cc12 [TCMDC-125045] | >12 | 2.09 µM | 2.09 µM | 92% | > 25 µM | 0.739 µM
5 | Cc1ccccc1OCC(O)CNC1CCC(NCC(O)COc2ccccc2C)CC1 (stereo not drawn) [TCMDC-125142] | 26 | 0.14 µM | 0.144 µM | 99% | 3.78 µM | 1.19 µM
6 | O=C(Nc1ccc2c(c1)CCCN2S(=O)(=O)c1cccs1)c1cc([N+](=O)[O-])ccc1Cl [TCMDC-125153] | >9 | 2.66 µM | 2.66 µM | 100% | > 25 µM | 0.845 µM
7 | Cc1cc(NCCCCCCNc2cc(C)nc3c(C)cccc23)c2cccc(C)c2n1 [TCMDC-125702] | >7.5 | 3.32 µM | 3.31 µM | 100% | > 25 µM | 0.406 µM
8 | CN(C)c1ccc2c(c1)Sc1cc(N(C)C)ccc1N2C(=O)CCCC(=O)O [TCMDC-125778] |  | > 5 µM |  | 100% | > 25 µM | 0.802 µM
9 | C[C@H](Cc1ccc(C[C@@H](C)NC[C@H](O)c2cccc(Cl)c2)cc1)NC[C@H](O)COc1ccccc1 [TCMDC-131549] | 5 | 0.92 µM | 0.923 µM | 100% | 4.7 µM | 1.17 µM
10 | C[C@H](Cc1ccc(OCCCCCOc2ccc(C[C@@H](C)NC[C@H](O)c3cccc(Cl)c3)cc2)cc1)NC[C@H](O)c1cccc(Cl)c1 [TCMDC-131563] | 3.25 | 0.55 µM |  | 100% | 1.79 µM | 0.19 µM
11 | CCc1c(CCNCCCCCCNCCc2ccc([N+](=O)[O-])cc2)ccc(OC)c1OC [TCMDC-132066] | 12 | 0.54 µM | 0.537 µM | 100% | 6.67 µM | 0.727 µM
12 | COc1ccc(CNC2Cc3ccccc3C2)cc1-c1ccc(S(=O)(=O)NCCN2CCCC2)cc1 [TCMDC-132248] | 6 | 1.38 µM | 1.38 µM | 100% | 8.28 µM | 0.582 µM
13 | Cc1cc(-c2cccc(CNC3CCCC3)c2)ccc1S(=O)(=O)NCCN1CCCC1 [TCMDC-132279] | 6 | 1.24 µM | 1.24 µM | 100% | 7.5 µM | 1.24 µM
14 | COc1ccc(CNCc2ccc(F)cc2)cc1-c1ccc(S(=O)(=O)NCCN2CCCC2)cc1 [TCMDC-132294] | 5.36 | 1.21 µM | 1.21 µM | 98% | 6.5 µM | 1.04 µM
15 | COc1ccc(CNCCc2cccs2)cc1-c1cccc(S(=O)(=O)NCCN2CCCC2)c1 [TCMDC-132479] | 7 | 1.68 µM | 1.68 µM | 94% | 11.4 µM | 0.877 µM
16 | O=C(Nc1ccc(N2CCNCC2)cc1)c1ccn2ncc(-c3cccc(Cl)c3)c2n1 [TCMDC-132663] | 6.35 | 3.5 µM |  | 95% | 22.2 µM | 0.922 µM
17 | Nc1ncc(-c2ccc3nccc(-c4ccncc4)c3c2)cc1S(=O)(=O)N1CCOCC1 [TCMDC-134180] | >3 | 6.9 µM |  | 100% | > 25 µM | 0.872 µM
18 | CN(C)S(=O)(=O)c1cc(-c2ccc3nccc(-c4cccc(S(N)(=O)=O)c4)c3c2)cnc1N [TCMDC-134230] | <1.5 | > 10 µM |  | 100% | 14.8 µM | 0.251 µM
19 | Nc1ncc(-c2ccc3nccc(-c4ccncc4)c3c2)cc1S(=O)(=O)N1CCCCC1 [TCMDC-134265] | >12 | 2.07 µM | 2.07 µM | 100% | > 25 µM | 0.581 µM
20 | COc1ccc(-c2cnn3ccc(Nc4cc(OC)c(OC)c(OC)c4)nc23)cc1OC [TCMDC-134383] | 8 | 1.62 µM | 1.62 µM | 100% | 12.9 µM | 0.65 µM
21 | COc1ccc2nc(-c3cccc(C)n3)nc(Nc3ccncc3)c2c1 [TCMDC-134670] |  | 2.51 µM |  | 100% | > 25 µM | 0.669 µM
22 | COCCn1c(-c2cccc(Cl)c2)nn(-c2ccc([N+](=O)[O-])cc2C#N)c1=S [TCMDC-134719] | >9 | 2.78 µM | 2.78 µM | 97% | > 25 µM | 0.178 µM
23 | CC(C)(C)OC(=O)NCc1ccc(Nc2nnc(-c3ccc(OCC(=O)NCc4ccc(C(C)(C)C)cc4)c([N+](=O)[O-])c3)o2)cc1 [TCMDC-134991] | 4.5 | 0.7 µM |  | 100% | 3.15 µM | 0.8 µM
24 | Fc1ccc(OC2CN(c3nccc(NCc4ccccc4Cl)n3)C2)cc1 [TCMDC-135110] | >10 | 2.51 µM | 2.51 µM | 98% | > 25 µM | 0.898 µM
25 | CN1CCN(CC2(Nc3nccc(NCCc4cn(C)c5ccccc45)n3)CCCCC2)CC1 [TCMDC-135122] | 10 | 0.7 µM | 0.697 µM | 95% | 6.94 µM | 1.81 µM
26 | Cc1occc1C(=O)Nc1nc(-c2ccccn2)nc2ccsc12 [TCMDC-135244] | <5 | 0.3 µM | 0.303 µM | 99% | < 1.56 µM | 0.899 µM
27 | Cc1cccc(-c2nc(Nc3ccncc3)c3cc(N(C)C)ccc3n2)n1 [TCMDC-135308] | >9 | 2.66 µM |  | 98% | > 25 µM | 0.71 µM
28 | COc1cc(NC(=O)c2sc(-c3ccc(Cl)cc3)cc2NC(=O)c2ccncc2)ccc1OCCN1CCCC1 [TCMDC-135398] |  | 0.15 µM |  | 100% | 3.23 µM | 0.031 µM
